Reference: patent US20220249441A1, “Homodimeric Tobramycin Adjuvant Repurposes Novobiocin as an Effective Antibacterial Agent Against Gram-Negative Bacteria” (priority 2019, published 2022)

Columns and labels:
[1] = test system: P. aeruginosa PAO1 and efflux deficient mutants, MDR/XDR isolates; assay: microbe, parasite or virus in culture; format: cell-based, Pseudomonas aeruginosa
Procedure: Antimicrobial Susceptibility Assay. The in vitro antimicrobial activity of all compounds/antibiotics against a panel of bacteria was evaluated by microbroth dilution method in accordance with the Clinical and Laboratory Standards Institute (CLSI) guidelines (using ATCC strains as quality control strains) (54). […] The broth with or without bacterial cells was used as positive or negative control, respectively.

P. aeruginosa = assay: Checkerboard assay (antibiotic + adjuvant combination MIC); format: cell-based, Pseudomonas aeruginosa; settings: compound at 8 μM; for MIC of Aztreonam + compound / MIC of Ceftazidime + compound / MIC of Imipenem + compound / MIC of Piperacillin + compound: P. aeruginosa PAO1
Procedure: (§1) Antimicrobial Susceptibility Assay. The in vitro antimicrobial activity of all compounds/antibiotics against a panel of bacteria was evaluated by microbroth dilution method in accordance with the Clinical and Laboratory Standards Institute (CLSI) guidelines (using ATCC strains as quality control strains) (54). Overnight grown bacterial cultures were diluted in saline to achieve a 0.5 McFarland turbidity, followed by 1:50 dilution in Mueller-Hinton broth (MHB) for inoculation to a final concentration of approximately 5×10^5 CFU/mL. […] The lowest concentration that prevented the visible growth of bacteria was defined as the MIC for each antimicrobial agent. The broth with or without bacterial cells was used as positive or negative control, respectively.
Checkerboard Assay. Combination studies with different antibiotics were performed in 96-well plates as previously described (19). Briefly, the antibiotic of interest was serially diluted in MHB along the abscissa while the adjuvant (tobramycin homodimer) was serially diluted in MHB along the ordinate. This creates a 10×7 matrices wherein each well consists of a combination of different antibiotic and adjuvant concentrations. Overnight grown bacterial cultures were diluted in saline to achieve a 0.5 McFarland turbidity, followed by 1:50 dilution in Mueller-Hinton broth (MHB) for inoculation to a final concentration of approximately 5×10^5 CFU/mL. […] MIC was recorded as wells with the lowest concentration of drugs with no bacterial growth. The fractional inhibitory concentration (FIC) for each antibiotic was calculated by dividing the MIC of the antibiotic in the presence of adjuvant by the MIC of the antibiotic alone. Similarly, the FIC of adjuvant was calculated by dividing the MIC of the adjuvant in the presence of antibiotic by the MIC of the adjuvant alone. FIC index is the sum of both FICs. FIC indices of ≤0.5 were deemed synergistic; >0.5-4, no interaction; and >4, antagonistic.

[2] = test system: panel of Gram-positive and Gram-negative bacteria; assay: Antimicrobial susceptibility assay against a panel of bacteria; format: cell-based; settings: some isolates
Procedure: as §1

[3] = PAO200 (first column so headed)
[4] = PAO200 (second column so headed)

Cl.Cl.Cl.Cl.Cl.NC[C@H]1O[C@H](O[C@H]2[C@H](OCCCCCCCCCCCCN3CCN(c4cc5c(cc4F)c(=O)c(C(=O)O)cn5C4CC4)CC3)[C@@H](O)[C@H](N)C[C@@H]2N)[C@H](N)C[C@@H]1O [Compound 24]
0.5 µg/mL: MIC of Aztreonam + compound (P. aeruginosa) | MIC of CAZ in the presence of compound (P. aeruginosa; PA 91433) | MIC of IPM in the presence of compound (P. aeruginosa; PA 108590) | MIC of ATM in the presence of compound (P. aeruginosa; PAO1)
0.13 µg/mL: MIC of ATM in the presence of compound (P. aeruginosa; PA 108590) | MIC of CAZ in the presence of compound (P. aeruginosa; PA O200 (efflux-deficient)) | MIC of ATM in the presence of compound (P. aeruginosa; PA O750 (efflux-deficient))
0.25 µg/mL: MIC of Ceftazidime + compound (P. aeruginosa) | MIC of ATM in the presence of compound (P. aeruginosa; PA 260-97103) | MIC of CAZ in the presence of compound (P. aeruginosa; PA 260-97103) | MIC of ATM in the presence of compound (P. aeruginosa; PA 101243) | MIC of CAZ in the presence of compound (P. aeruginosa; PAO1)
4 µg/mL: MIC [1, 3] | MIC of CAZ in the presence of compound (P. aeruginosa; PA 262-101856) | MIC of ATM in the presence of compound (P. aeruginosa; PA 86052) | MIC of CAZ in the presence of compound (P. aeruginosa; PA 86052) | MIC of IPM in the presence of compound (P. aeruginosa; PA 86052) | MIC of CAZ in the presence of compound (P. aeruginosa; PA 100036) | MIC of IPM in the presence of compound (P. aeruginosa; PA 100036) | MIC of CAZ in the presence of compound (P. aeruginosa; PA 101243) | MIC of IPM in the presence of compound (P. aeruginosa; PA 101243) | MIC of ATM in the presence of compound (P. aeruginosa; PA 101885) | MIC of CAZ in the presence of compound (P. aeruginosa; PA 101885) | MIC of CAZ in the presence of compound (P. aeruginosa; PA 114228)
128 µg/mL: MIC of CAZ in the presence of compound (P. aeruginosa; PA 259-96918)
0.03 µg/mL: MIC of ATM in the presence of compound (P. aeruginosa; PA O200 (efflux-deficient))
64 µg/mL: MIC of CAZ in the presence of compound (P. aeruginosa; PA 264-104354) | MIC of IPM in the presence of compound (P. aeruginosa; PA 88949) | MIC of CAZ in the presence of compound (P. aeruginosa; PA 107092)
1 µg/mL: MIC of Imipenem + compound (P. aeruginosa) | MIC of CAZ in the presence of compound (P. aeruginosa; PA 108590) | MIC of IPM in the presence of compound (P. aeruginosa; PA 114228) | MIC of IPM in the presence of compound (P. aeruginosa; PA O200 (efflux-deficient)) | MIC of IPM in the presence of compound (P. aeruginosa; PAO1)
8 µg/mL: MIC of ATM in the presence of compound (P. aeruginosa; PA 259-96918) | MIC of IPM in the presence of compound (P. aeruginosa; PA 262-101856) | MIC of IPM in the presence of compound (P. aeruginosa; PA 264-104354) | MIC of ATM in the presence of compound (P. aeruginosa; PA 88949) | MIC of ATM in the presence of compound (P. aeruginosa; PA 91433) | MIC of IPM in the presence of compound (P. aeruginosa; PA 91433) | MIC of ATM in the presence of compound (P. aeruginosa; PA 100036) | MIC of IPM in the presence of compound (P. aeruginosa; PA 109084) | MIC of ATM in the presence of compound (P. aeruginosa; PA 114228)
0.01 µg/mL: MIC of CAZ in the presence of compound (P. aeruginosa; PA O750 (efflux-deficient))
32 µg/mL: MIC ([1]; PAO1 (wild-type)) | MIC of CAZ in the presence of compound (P. aeruginosa; PA 88949) | MIC of ATM in the presence of compound (P. aeruginosa; PA 107092) | MIC of ATM in the presence of compound (P. aeruginosa; PA 109084) | MIC of CAZ in the presence of compound (P. aeruginosa; PA 109084)
some modest residual activity: intrinsic antimicrobial activity [2]
16 µg/mL: MIC of IPM in the presence of compound (P. aeruginosa; PA 259-96918) | MIC of ATM in the presence of compound (P. aeruginosa; PA 262-101856) | MIC of ATM in the presence of compound (P. aeruginosa; PA 264-104354) | MIC of IPM in the presence of compound (P. aeruginosa; PA 107092)
2 µg/mL: MIC ([1]; PA0750 (efflux-deficient)) | MIC [1, 4] | MIC of Piperacillin + compound (P. aeruginosa) | MIC of IPM in the presence of compound (P. aeruginosa; PA 260-97103) | MIC of IPM in the presence of compound (P. aeruginosa; PA 101885) | MIC of IPM in the presence of compound (P. aeruginosa; PA O750 (efflux-deficient))

Cl.Cl.Cl.Cl.Cl.Cl.NC[C@H]1O[C@H](O[C@H]2[C@H](OCCCCCCCCCCCCN3CCN(c4cc5c(cc4F)c(=O)c(C(=O)O)cn5C4CC4)CC3)[C@@H](O[C@H]3O[C@H](CO)[C@@H](O)[C@H](N)[C@H]3O)[C@H](N)C[C@@H]2N)[C@H](N)C[C@@H]1O [Compound 21, Tobramycin-ciprofloxacin]
4 µg/mL: MIC [1, 3] | MIC of ATM in the presence of compound (P. aeruginosa; PA 260-97103) | MIC of CAZ in the presence of compound (P. aeruginosa; PA 260-97103) | MIC of ATM in the presence of compound (P. aeruginosa; PA 262-101856) | MIC of CAZ in the presence of compound (P. aeruginosa; PA 262-101856) | MIC of IPM in the presence of compound (P. aeruginosa; PA 262-101856) | MIC of IPM in the presence of compound (P. aeruginosa; PA 264-104354) | MIC of ATM in the presence of compound (P. aeruginosa; PA 91433) | MIC of ATM in the presence of compound (P. aeruginosa; PA 100036) | MIC of ATM in the presence of compound (P. aeruginosa; PA 101243)
8 µg/mL: MIC of ATM in the presence of compound (P. aeruginosa; PA 259-96918) | MIC of ATM in the presence of compound (P. aeruginosa; PA 264-104354) | MIC of ATM in the presence of compound (P. aeruginosa; PA 86052) | MIC of IPM in the presence of compound (P. aeruginosa; PA 86052) | MIC of ATM in the presence of compound (P. aeruginosa; PA 88949) | MIC of IPM in the presence of compound (P. aeruginosa; PA 88949) | MIC of CAZ in the presence of compound (P. aeruginosa; PA 101243) | MIC of ATM in the presence of compound (P. aeruginosa; PA 107092) | MIC of IPM in the presence of compound (P. aeruginosa; PA 107092) | MIC of IPM in the presence of compound (P. aeruginosa; PA 109084)
64 µg/mL: MIC of CAZ in the presence of compound (P. aeruginosa; PA 259-96918)
four out of eleven: resistant isolates in which CLSI breakpoint was attained for ceftazidime (P. aeruginosa)
twelve out of thirteen: resistant isolates in which CLSI breakpoint was attained for aztreonam (P. aeruginosa)
0.5 µg/mL: MIC of Imipenem + compound (P. aeruginosa) | MIC of ATM in the presence of compound (P. aeruginosa; PA 108590) | MIC of CAZ in the presence of compound (P. aeruginosa; PA 108590) | MIC of CAZ in the presence of compound (P. aeruginosa; PA 114228) | MIC of IPM in the presence of compound (P. aeruginosa; PA O750 (efflux-deficient)) | MIC of IPM in the presence of compound (P. aeruginosa; PAO1)
0.03 µg/mL: MIC of ATM in the presence of compound (P. aeruginosa; PA O200 (efflux-deficient)) | MIC of CAZ in the presence of compound (P. aeruginosa; PA O750 (efflux-deficient))
2 µg/mL: MIC ([1]; PA0750 (efflux-deficient)) | MIC [1, 4] | MIC of Piperacillin + compound (P. aeruginosa) | MIC of IPM in the presence of compound (P. aeruginosa; PA 260-97103) | MIC of CAZ in the presence of compound (P. aeruginosa; PA 91433) | MIC of IPM in the presence of compound (P. aeruginosa; PA 91433) | MIC of CAZ in the presence of compound (P. aeruginosa; PA 100036) | MIC of IPM in the presence of compound (P. aeruginosa; PA 100036) | MIC of IPM in the presence of compound (P. aeruginosa; PA 101243) | MIC of IPM in the presence of compound (P. aeruginosa; PA 101885) | MIC of ATM in the presence of compound (P. aeruginosa; PA 114228) | MIC of IPM in the presence of compound (P. aeruginosa; PA 114228)
0.06 µg/mL: MIC of CAZ in the presence of compound (P. aeruginosa; PA O200 (efflux-deficient)) | MIC of ATM in the presence of compound (P. aeruginosa; PA O750 (efflux-deficient))
16 µg/mL: MIC of IPM in the presence of compound (P. aeruginosa; PA 259-96918) | MIC of CAZ in the presence of compound (P. aeruginosa; PA 264-104354) | MIC of CAZ in the presence of compound (P. aeruginosa; PA 107092) | MIC of ATM in the presence of compound (P. aeruginosa; PA 109084) | MIC of CAZ in the presence of compound (P. aeruginosa; PA 109084)
0.25 µg/mL: MIC of Aztreonam + compound (P. aeruginosa) | MIC of Ceftazidime + compound (P. aeruginosa) | MIC of IPM in the presence of compound (P. aeruginosa; PA 108590) | MIC of ATM in the presence of compound (P. aeruginosa; PAO1) | MIC of CAZ in the presence of compound (P. aeruginosa; PAO1)
some modest residual activity: intrinsic antimicrobial activity [2]
32 µg/mL: MIC ([1]; PAO1 (wild-type)) | MIC of CAZ in the presence of compound (P. aeruginosa; PA 86052) | MIC of CAZ in the presence of compound (P. aeruginosa; PA 88949)
1 µg/mL: MIC of ATM in the presence of compound (P. aeruginosa; PA 101885) | MIC of CAZ in the presence of compound (P. aeruginosa; PA 101885) | MIC of IPM in the presence of compound (P. aeruginosa; PA O200 (efflux-deficient))
ten out of seventeen: resistant isolates in which CLSI breakpoint was attained for imipenem (P. aeruginosa)
